Converted amounts (≈) assume the structure as drawn. Read-outs that look alike come from different tables or passages of the source.
What was measured:
A. baumannii = assay: MIC, broth microdilution, CDC/FDA Antibiotic Resistance Isolate Bank (Example 7, Tables 9, 13, 14); type: cell-based, Acinetobacter baumannii; conditions: for MIC: read-out: MIC
Enterobacterales = assay: MIC, broth microdilution, CDC/FDA Antibiotic Resistance Isolate Bank (Example 7, Tables 8, 11, 12); type: cell-based; conditions: for MIC: read-out: MIC
[1] = MIC distribution, metallo-β-lactamase-producing A. baumannii, inhibitor µg/mL in parentheses

NCC[C@H](O)C(=O)N[C@@H]1C[C@H](N)[C@@H](O[C@H]2O[C@H](CN)[C@@H](O)[C@H](O)[C@H]2O)[C@H](O)[C@H]1O[C@H]1O[C@H](CO)[C@@H](O)[C@H](N)[C@H]1O [Amikacin, amikacin]
MIC (A. baumannii; Acinetobacter baumannii, A. baumannii KUB No. 5567, AR Bank #70, OXA-58, OXA-100): 1 µg/mL (≈ 1.71 µM)
MIC (A. baumannii; Acinetobacter baumannii, A. baumannii KUB No. 5575, AR Bank #78, OXA-71): 32 µg/mL (≈ 54.6 µM)
MIC (A. baumannii; Acinetobacter baumannii, A. baumannii KUB No. 5580, AR Bank #83, OXA-23, OXA-69, NDM-1): > 64 µg/mL
MIC (A. baumannii; Acinetobacter baumannii, A. baumannii KUB No. 5585, AR Bank #88, OXA-64, NDM-1): 32 µg/mL (≈ 54.6 µM)
MIC (A. baumannii; Acinetobacter baumannii, A. baumannii KUB No. 5598, AR Bank #101, OXA-24, OXA-65): 64 µg/mL (≈ 109 µM)
MIC (A. baumannii; Acinetobacter baumannii, A. baumannii KUB No. 5599, AR Bank #102, OXA-66): > 64 µg/mL
MIC (A. baumannii; Acinetobacter baumannii, A. baumannii KUB No. 5706, AR Bank #273, OXA-23, OXA-66): > 64 µg/mL
MIC (A. baumannii; Acinetobacter baumannii, A. baumannii KUB No. 5707, AR Bank #274, OXA-66, OXA-72): 16 µg/mL (≈ 27.3 µM)
MIC (A. baumannii; Acinetobacter baumannii, A. baumannii KUB No. 5708, AR Bank #275, OXA-23, OXA-66): > 64 µg/mL
MIC (A. baumannii; Acinetobacter baumannii, A. baumannii KUB No. 5709, AR Bank #276, no carbapenemase genes (-)): 64 µg/mL (≈ 109 µM)
MIC (A. baumannii; Acinetobacter baumannii, A. baumannii KUB No. 5710, AR Bank #277, OXA-24, OXA-65): 16 µg/mL (≈ 27.3 µM)
MIC (A. baumannii; Acinetobacter baumannii, A. baumannii KUB No. 5711, AR Bank #278, OXA-23, OXA-66): > 64 µg/mL
MIC (A. baumannii; Acinetobacter baumannii, A. baumannii KUB No. 5712, AR Bank #279, OXA-23, OXA-66): > 64 µg/mL
MIC (A. baumannii; Acinetobacter baumannii, A. baumannii KUB No. 5713, AR Bank #280, OXA-66): 4 µg/mL (≈ 6.83 µM)
MIC (A. baumannii; Acinetobacter baumannii, A. baumannii KUB No. 5714, AR Bank #281, OXA-82): 2 µg/mL (≈ 3.42 µM)
MIC (A. baumannii; Acinetobacter baumannii, A. baumannii KUB No. 5715, AR Bank #282, OXA-23, OXA-66): > 64 µg/mL
MIC (A. baumannii; Acinetobacter baumannii, A. baumannii KUB No. 5716, AR Bank #283, OXA-23, OXA-66): > 64 µg/mL
MIC (A. baumannii; Acinetobacter baumannii, A. baumannii KUB No. 5717, AR Bank #284, OXA-24, OXA-65): 32 µg/mL (≈ 54.6 µM)
MIC (A. baumannii; Acinetobacter baumannii, A. baumannii KUB No. 5718, AR Bank #285, OXA-24, OXA-65): 64 µg/mL (≈ 109 µM)
MIC (A. baumannii; Acinetobacter baumannii, KUB No. 5719, AR Bank #286): > 64 µg/mL
MIC (A. baumannii; Acinetobacter baumannii, KUB No. 5720, AR Bank #287): 64 µg/mL (≈ 109 µM)
MIC (A. baumannii; Acinetobacter baumannii, KUB No. 5721, AR Bank #288): > 64 µg/mL
MIC (A. baumannii; Acinetobacter baumannii, KUB No. 5722, AR Bank #259): 32 µg/mL (≈ 54.6 µM)
MIC (A. baumannii; Acinetobacter baumannii, KUB No. 5723, AR Bank #290): > 64 µg/mL
MIC (A. baumannii; Acinetobacter baumannii, KUB No. 5724, AR Bank #291): > 64 µg/mL
MIC (A. baumannii; Acinetobacter baumannii, KUB No. 5725, AR Bank #292): 32 µg/mL (≈ 54.6 µM)
MIC (A. baumannii; Acinetobacter baumannii, KUB No. 5726, AR Bank #293): 16 µg/mL (≈ 27.3 µM)
MIC (A. baumannii; Acinetobacter baumannii, KUB No. 5727, AR Bank #294): 64 µg/mL (≈ 109 µM)
MIC (A. baumannii; Acinetobacter baumannii, KUB No. 5728, AR Bank #295): 2 µg/mL (≈ 3.42 µM)
MIC (A. baumannii; Acinetobacter baumannii, KUB No. 5729, AR Bank #296): > 64 µg/mL
MIC (A. baumannii; Acinetobacter baumannii, KUB No. 5730, AR Bank #297): 32 µg/mL (≈ 54.6 µM)
MIC (A. baumannii; Acinetobacter baumannii, KUB No. 5731, AR Bank #298): > 64 µg/mL
MIC (A. baumannii; Acinetobacter baumannii, KUB No. 5732, AR Bank #299): > 64 µg/mL
MIC (A. baumannii; Acinetobacter baumannii, KUB No. 5733, AR Bank #300): > 64 µg/mL
MIC (A. baumannii; Acinetobacter baumannii, KUB No. 5734, AR Bank #301): 64 µg/mL (≈ 109 µM)
MIC (A. baumannii; Acinetobacter baumannii, KUB No. 5735, AR Bank #302): > 64 µg/mL
MIC (A. baumannii; Acinetobacter baumannii, KUB No. 5736, AR Bank #303): > 64 µg/mL
MIC (A. baumannii; Acinetobacter baumannii, KUB No. 5737, AR Bank #304): 32 µg/mL (≈ 54.6 µM)
MIC (A. baumannii; Acinetobacter baumannii, KUB No. 5738, AR Bank #305): 32 µg/mL (≈ 54.6 µM)
MIC (A. baumannii; Acinetobacter baumannii, KUB No. 5739, AR Bank #306): 64 µg/mL (≈ 109 µM)
MIC (A. baumannii; Acinetobacter baumannii, KUB No. 5740, AR Bank #307): > 64 µg/mL
MIC (A. baumannii; Acinetobacter baumannii, KUB No. 5741, AR Bank #308): > 64 µg/mL
MIC (A. baumannii; Acinetobacter baumannii, KUB No. 5742, AR Bank #309): > 64 µg/mL
MIC (A. baumannii; Acinetobacter baumannii, KUB No. 5743, AR Bank #310): > 64 µg/mL
MIC (A. baumannii; Acinetobacter baumannii, KUB No. 5744, AR Bank #311): > 64 µg/mL
MIC (A. baumannii; Acinetobacter baumannii, KUB No. 5745, AR Bank #312): 1 µg/mL (≈ 1.71 µM)
MIC (A. baumannii; Acinetobacter baumannii, KUB No. 5746, AR Bank #313): 2 µg/mL (≈ 3.42 µM)
MIC50 (A. baumannii; Acinetobacter baumannii, 55 isolates of A. baumannii, read-out: MIC50): 64 µg/mL (≈ 109 µM)
MIC80 (A. baumannii; Acinetobacter baumannii, 55 isolates of A. baumannii, read-out: MIC80): > 64 µg/mL
MIC90 (A. baumannii; Acinetobacter baumannii, 55 isolates of A. baumannii, read-out: MIC90): > 64 µg/mL
Number of isolates at MIC 2 µg/mL (A. baumannii; [1]): 2
Number of isolates at MIC 32 µg/mL (A. baumannii; [1]): 1
Number of isolates at MIC >64 µg/mL (A. baumannii; [1]): 1
MIC50 (Enterobacterales; 154 strains of Enterobacterales, read-out: MIC50): 4 µg/mL (≈ 6.83 µM)
MIC90 (Enterobacterales; 154 strains of Enterobacterales, read-out: MIC90): > 64 µg/mL
MIC (Enterobacterales; Citrobacter freundii, KUB No. 5654, AR Bank # 157): > 64 µg/mL
MIC (Enterobacterales; Enterobacter cloacae, Enterobacter cloacae KUB No. 5792, AR Bank #448): 16 µg/mL (≈ 27.3 µM)
MIC (Enterobacterales; Enterobacter cloacae, Enterobacter cloacae KUB No. 5807, AR Bank #501): 4 µg/mL (≈ 6.83 µM)
MIC (Enterobacterales; Enterobacter cloacae, Enterobacter cloacae KUB No. 5808, AR Bank #502): 2 µg/mL (≈ 3.42 µM)
MIC (Enterobacterales; Enterobacter cloacae, Enterobacter cloacae complex, KUB No. 5661, AR Bank # 164): 1 µg/mL (≈ 1.71 µM)
MIC (Enterobacterales; Enterobacter cloacae, Enterobacter cloacae group, KUB No. 5629, AR Bank # 132): 1 µg/mL (≈ 1.71 µM)
MIC (Enterobacterales; Enterobacter cloacae, KUB No. 5529, AR Bank# 32): 1 µg/mL (≈ 1.71 µM)
MIC (Enterobacterales; Enterobacter cloacae, KUB No. 5535, AR Bank# 38): > 64 µg/mL
MIC (Enterobacterales; Enterobacter cloacae, KUB No. 5547, AR Bank# 50): 1 µg/mL (≈ 1.71 µM)
MIC (Enterobacterales; Enterobacter cloacae, KUB No. 5550, AR Bank# 53): 64 µg/mL (≈ 109 µM)
MIC (Enterobacterales; Enterobacter cloacae, KUB No. 5557, AR Bank# 60): 1 µg/mL (≈ 1.71 µM)
MIC (Enterobacterales; Enterobacter cloacae, KUB No. 5562, AR Bank # 65): 1 µg/mL (≈ 1.71 µM)
MIC (Enterobacterales; Enterobacter cloacae, KUB No. 5569, AR Bank # 72): 1 µg/mL (≈ 1.71 µM)
MIC (Enterobacterales; Enterobacter cloacae, KUB No. 5570, AR Bank # 73): 0.25 µg/mL (≈ 0.427 µM)
MIC (Enterobacterales; Enterobacter cloacae, KUB No. 5590, AR Bank # 93): 2 µg/mL (≈ 3.42 µM)
MIC (Enterobacterales; Enterobacter cloacae, KUB No. 5660, AR Bank # 163): 4 µg/mL (≈ 6.83 µM)
MIC (Enterobacterales; Enterobacter cloacae, KUB No. 5761, AR Bank # 365): 16 µg/mL (≈ 27.3 µM)
MIC (Enterobacterales; Enterobacter cloacae, KUB No. 5762, AR Bank # 366): 4 µg/mL (≈ 6.83 µM)
MIC (Enterobacterales; Enterobacter cloacae, KUB No. 5763, AR Bank # 367): 1 µg/mL (≈ 1.71 µM)
MIC (Enterobacterales; Enterobacter cloacae, KUB No. 5778, AR Bank # 432): 2 µg/mL (≈ 3.42 µM)
MIC (Enterobacterales; Enterobacter cloaccae, KUB No. 5651, AR Bank # 154): 8 µg/mL (≈ 13.7 µM)
MIC (Enterobacterales; Enterobacter clooreae, KUB No. 5633, AR Bank # 136): 2 µg/mL (≈ 3.42 µM)
MIC (Enterobacterales; Escherichia coli, Escherichia coli KUB No. 5783, AR Bank #437): 2 µg/mL (≈ 3.42 µM)
MIC (Enterobacterales; Escherichia coli, Escherichia coli KUB No. 5794, AR Bank #450): 2 µg/mL (≈ 3.42 µM)
MIC (Enterobacterales; Escherichia coli, Escherichia coli KUB No. 5795, AR Bank #451): 8 µg/mL (≈ 13.7 µM)
MIC (Enterobacterales; Escherichia coli, Escherichia coli KUB No. 5796, AR Bank #452): 1 µg/mL (≈ 1.71 µM)
MIC (Enterobacterales; Escherichia coli, Escherichia coli KUB No. 5803, AR Bank #861): 1 µg/mL (≈ 1.71 µM)
MIC (Enterobacterales; Escherichia coli, KUB No. 5558, AR Bank # 61): 16 µg/mL (≈ 27.3 µM)
MIC (Enterobacterales; Escherichia coli, KUB No. 5564, AR Bank # 67): 2 µg/mL (≈ 3.42 µM)
MIC (Enterobacterales; Escherichia coli, KUB No. 5566, AR Bank # 69): 16 µg/mL (≈ 27.3 µM)
MIC (Enterobacterales; Escherichia coli, KUB No. 5574, AR Bank # 77): 1 µg/mL (≈ 1.71 µM)
MIC (Enterobacterales; Escherichia coli, KUB No. 5578, AR Bank # 81): 2 µg/mL (≈ 3.42 µM)
MIC (Enterobacterales; Escherichia coli, KUB No. 5581, AR Bank # 84): 0.5 µg/mL (≈ 0.854 µM)
MIC (Enterobacterales; Escherichia coli, KUB No. 5582, AR Bank # 85): 1 µg/mL (≈ 1.71 µM)
MIC (Enterobacterales; Escherichia coli, KUB No. 5583, AR Bank # 86): 1 µg/mL (≈ 1.71 µM)
MIC (Enterobacterales; Escherichia coli, KUB No. 5586, AR Bank # 89): 1 µg/mL (≈ 1.71 µM)
MIC (Enterobacterales; Escherichia coli, KUB No. 5601, AR Bank # 104): 1 µg/mL (≈ 1.71 µM)
MIC (Enterobacterales; Escherichia coli, KUB No. 5611, AR Bank # 114): 1 µg/mL (≈ 1.71 µM)
MIC (Enterobacterales; Escherichia coli, KUB No. 5615, AR Bank # 118): > 64 µg/mL
MIC (Enterobacterales; Escherichia coli, KUB No. 5616, AR Bank # 119): > 64 µg/mL
MIC (Enterobacterales; Escherichia coli, KUB No. 5625, AR Bank # 128): > 64 µg/mL
MIC (Enterobacterales; Escherichia coli, KUB No. 5634, AR Bank # 137): 16 µg/mL (≈ 27.3 µM)
MIC (Enterobacterales; Escherichia coli, KUB No. 5646, AR Bank # 149): 2 µg/mL (≈ 3.42 µM)
MIC (Enterobacterales; Escherichia coli, KUB No. 5647, AR Bank # 150): 0.5 µg/mL (≈ 0.854 µM)
MIC (Enterobacterales; Escherichia coli, KUB No. 5648, AR Bank # 151): 1 µg/mL (≈ 1.71 µM)
MIC (Enterobacterales; Escherichia coli, KUB No. 5659, AR Bank # 162): 1 µg/mL (≈ 1.71 µM)
MIC (Enterobacterales; Escherichia coli, KUB No. 5764, AR Bank # 368): 2 µg/mL (≈ 3.42 µM)
MIC (Enterobacterales; Escherichia coli, KUB No. 5765, AR Bank # 369): 2 µg/mL (≈ 3.42 µM)
